Where only a bound is given, the exact number is not on record here.

The target of the experiment is T1, GST-JAK2(808-1132) (Homo sapiens, UniProt O60674).
T1 construct: GST-JAK2(808-1132) is purchased from Invitrogen; purchased Invitrogen (Carlsbad, USA) #4288
T1 sequence (O60674 808-1132): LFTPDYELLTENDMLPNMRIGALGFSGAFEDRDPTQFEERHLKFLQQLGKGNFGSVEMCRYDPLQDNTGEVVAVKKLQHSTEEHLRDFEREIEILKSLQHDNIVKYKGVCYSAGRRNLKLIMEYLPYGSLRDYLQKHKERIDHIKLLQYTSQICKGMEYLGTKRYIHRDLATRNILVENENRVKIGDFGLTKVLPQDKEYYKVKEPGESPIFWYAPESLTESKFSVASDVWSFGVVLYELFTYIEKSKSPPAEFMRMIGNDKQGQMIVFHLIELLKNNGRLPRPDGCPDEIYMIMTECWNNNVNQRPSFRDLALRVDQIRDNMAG
The experiment is described as follows: EPK JAK/TYK-kinase family profiling assay (Caliper mobility shift), JAK2. The format is biochemical. The note with it: Caliper mobility shift assay of Example 187, 20 μM ATP, read-out: IC50 with Test in present Example. The text has this:
All four kinases of the JAK/TYK-kinase family are used as purified recombinant GST-fusion proteins, containing the active kinase domains. GST-JAK1(866-1154), GST-JAK3(811-1124), and GST-TYK2(888-1187) are expressed and purified by affinity chromatography. GST-JAK2(808-1132) is purchased from Invitrogen (Carlsbad, USA, #4288).
The kinase assays are based on the Caliper mobility shift assay using the LabChip 3000 systems. This technology is similar to capillary electrophoresis and uses charge driven separation of substrate and product in a microfluidic chip.
All kinase reactions are performed in 384 well microtiter plates in a total reaction volume of 18 μl. The assay plates are prepared with 0.1 μl per well of test compound in the appropriate test concentration, as described under the section “preparation of compound dilutions”. The reactions are started by combining 9 μl of substrate mix (consisting of peptide and ATP) with 9 μl of kinase dilution. The reactions are incubated for 60 minutes at 30° C. and stopped by adding 70 μl of stop buffer (100 mM Hepes, 5% DMSO, 0.1% Coating reagent, 10 mM EDTA, 0.015% Brij 35).
Fluorescently labeled synthetic peptides are used as substrates in all reactions. […] Specific assay conditions are described in Table 1:
The terminated reactions are transferred to a Caliper LabChip 3000 reader (Caliper Life Sciences, Mountain View, Calif., USA) and the turnover of each reaction is measured by determining the substrate/product ratio.
Test compounds are dissolved in DMSO (10 mM) and transferred into 1.4 mL flat bottom or V-shaped Matrix tubes carrying a unique 2D matrix chip by individual compound hubs. The numbers of these chips are distinctively linked to the individual compound identification numbers. The stock solutions are stored at −20° C. if not used immediately. For the test procedure the vials are defrosted and identified by a scanner whereby a working sheet is generated that guides the subsequent working steps.
Compound dilutions are made in 96 well plates. This format enabled the assay of maximally 40 individual test compounds at 8 concentrations (single points) including 4 reference compounds. The dilution protocol includes the production of pre-dilution plates, master plates and assay plates:
Pre-dilution plates: 96 polypropylene well plates are used as pre-dilution plates. A total of 4 pre-dilution plates are prepared including 10 test compounds each on the plate positions A1-A10, one standard compound at A11 and one DMSO control at A12. All dilution steps are done on a Hamilton STAR robot (Hamilton, Co., Reno, Nev., USA).
Master plates: 100 μL of individual compound dilutions including standard compound and controls of the 4 “pre-dilution plates” are transferred into a 384 “master plate” including the following concentrations 1,820, […], 182, 54.6, 18.2, 5.46, 1.82 and 0.546 μM, respectively in 90% of DMSO.
Assay plates: Identical assay plates are then prepared by pipetting 100 nL each of compound dilutions of the master plates into 384-well “assay plates”. In the following the compounds are mixed with 9 μL of assays components plus 9 μL enzyme corresponding to a 1:181 dilution steps enabling the final concentration of 10, 3.0, 1.0, 0.3, 0.1, 0.03, 0.01 and 0.003 μM, respectively. The preparation of the master plates are handled by the Matrix PlateMate Plus robot (Thermo Fisher Scientific, Handforth, Cheshire, United Kingdom) and replication of assay plates by the HummingBird robot (Genomic Solutions, Inc., Ann Arbor, Mich., USA).
For `CCN1CCN(c2ccc(Nc3nc4cccc(-c5ccc(CN6CCS(=O)(=O)CC6)c(F)c5)c4o3)cc2C)CC1` [Example 88, {7-[4-(1,1-Dioxo-1lambda*6*-thiomorpholin-4-ylmethyl)-3-fluoro-phenyl]-benzooxazol-2-yl}-[4-(4-ethyl-piperazin-1-yl)-3-methyl-phenyl]-amine], the IC50 was under 3 nM.
As for `CN1CCN(c2ccc(Nc3nc4cccc(-c5ccc(CN6CCS(=O)(=O)CC6)cc5)c4o3)cc2)CC1` [Example 89, {7-[4-(1,1-Dioxo-1lambda*6*-thiomorpholin-4-ylmethyl)-phenyl]-benzooxazol-2-yl}-[4-(4-methyl-piperazin-1-yl)-phenyl]-amine], the concentration for half-maximal inhibition (IC50) worked out at 60 nM.
For `CN1CCN(c2ccc(Nc3nc4cccc(-c5ccc(C(=O)N6CCOCC6)c(F)c5)c4o3)cc2C#N)CC1` [Example 90, 5-{7-[3-Fluoro-4-(morpholine-4-caronyl)-phenyl]-benzooxazol-2-ylamino}-2-(4-methyl-piperazin-1-yl)-benzonitrile] the value was 56.5 nM; for `O=C(c1ccc(-c2cccc3nc(Nc4ccc(N5CCNCC5)cc4)oc23)cc1F)N1CCOCC1` [Example 91, {2-Fluoro-4-[2-(4-piperazin-1-yl-phenylamino)-benzooxazol-7-yl]-phenyl}-morpholin-4-yl-methanone], 64 nM; for `CCN1CCN(c2ccc(Nc3nc4cccc(-c5ccc(S(C)(=O)=O)cc5)c4o3)cc2C)CC1` [Example 92, [4-(4-Ethyl-piperazin-1-yl)-3-methyl-phenyl]-[7-(4-methanesulfonyl-phenyl)-benzooxazol-2-yl]-amine], 10.1 nM.
For the molecule `CN1CCN(c2ccc(Nc3nc4cccc(-c5ccc(S(N)(=O)=O)cc5)c4o3)cc2)CC1` [Example 93, 4-{2-[4-(4-Methyl-piperazin-1-yl)-phenylamino]-benzooxazol-7-yl}-benzenesulfonamide], the IC50 was 52 nM.
In the case of `CCN1CCN(c2ccc(Nc3nc4cccc(-c5ccc(C(=O)N6CCOCC6)c(F)c5)c4o3)cc2C)CC1` [Example 94, (4-{2-[4-(4-Ethyl-piperazin-1-yl)-3-methyl-phenylamino]-benzooxazol-7-yl}-2-fluoro-phenyl)-morpholin-4-yl-methanone] it was 6.9 nM; in that of `CN1CCN(c2ccc(Nc3nc4cccc(-c5cc(F)c(CN6CCS(=O)(=O)CC6)c(F)c5)c4o3)cc2)CC1` [Example 95, {7-[4-(1,1-Dioxo-1lambda*6*-thiomorpholin-4-ylmethyl)-3,5-difluoro-phenyl]-benzooxazol-2-yl}-[4-(4-methyl-piperazin-1-yl)-phenyl]-amine], 6.85 nM.
Consider `Cc1cc(Nc2nc3cccc(-c4cc(F)c(CN5CCS(=O)(=O)CC5)c(F)c4)c3o2)ccc1C(=O)N1CCCC1` [Example 96, (4-{7-[4-(1,1-Dioxo-1lambda*6*-thiomorpholin-4-ylmethyl)-3,5-difluoro-phenyl]-benzooxazol-2-ylamino}-2-methyl-phenyl)-pyrrolidin-1-yl-methanone], for which the IC50 was 4.35 nM.
In the case of `Cc1cc(-c2cccc3nc(Nc4ccc(N5CCN(C6CC6)CC5)cc4)oc23)ccc1C(=O)N1CCOCC1` [Example 97, (4-{2-[4-(4-Cyclopropyl-piperazin-1-yl)-phenylamino]-benzooxazol-7-yl}-2-methyl-phenyl)-morpholin-4-yl-methanone] it was 21.5 nM; in that of `CCN1CCN(c2ccc(Nc3nc4cccc(-c5cc(F)c(CN6CCOCC6)c(F)c5)c4o3)cc2C)CC1` [Example 98, [7-(3,5-Difluoro-4-morpholin-4-ylmethyl-phenyl)-benzooxazol-2-yl]-[4-(4-ethyl-piperazin-1-yl)-3-methyl-phenyl]-amine], 5.2 nM.
In the case of `Cc1cc(Nc2nc3cccc(-c4cc(F)c(CN5CCOCC5)c(F)c4)c3o2)ccc1C(=O)N1CCCC1` [Example 99, {4-[7-(3,5-Difluoro-4-morpholin-4-ylmethyl-phenyl)-benzooxazol-2-ylamino]-2-methyl-phenyl}-pyrrolidin-1-yl-methanone] it was 19.2 nM.
For `Cc1cc(Nc2nc3cccc(-c4ccc(S(C)(=O)=O)cc4)c3o2)ccc1N1CCN(CCN(C)C)CC1` [Example 100, {4-[4-(2-Dimethylamino-ethyl)-piperazin-1-yl]-3-methyl-phenyl}-[7-(4-methanesulfonyl-phenyl)-benzooxazol-2-yl]-amine] the value was 16.5 nM.
As for `Cc1cc(Nc2nc3cccc(-c4cc(F)c(CN5CCS(=O)(=O)CC5)c(F)c4)c3o2)ccc1N1CCN(C(C)C)CC1` [Example 101, {7-[4-(1,1-Dioxo-1lambda*6*-thiomorpholin-4-ylmethyl)-3,5-difluoro-phenyl]-benzooxazol-2-yl}-[4-(4-isopropyl-piperazin-1-yl)-3-methyl-phenyl]-amine], the IC50 was 3.6 nM.
For `Cc1cc(-c2cccc3nc(Nc4ccc(N5CCN(CCN(C)C)CC5)c(C)c4)oc23)ccc1C(=O)N1CCOCC1` [Example 102, [4-(2-{4-[4-(2-Dimethylamino-ethyl)-piperazin-1-yl]-3-methyl-phenylamino}-benzooxazol-7-yl)-2-methyl-phenyl]-morpholin-4-yl-methanone] the value was 5.65 nM.
For `CCN(CC)C(=O)c1ccc(Nc2nc3cccc(-c4cc(F)c(CN5CCOCC5)c(F)c4)c3o2)cc1C` [Example 103, 4-[7-(3,5-Difluoro-4-morpholin-4-ylmethyl-phenyl)-benzooxazol-2-ylamino]-N,N-diethyl-2-methyl-benzamide] the value was 14 nM; for `CCN1CCN(C(=O)c2ccc(Nc3nc4cccc(-c5cc(F)c(CN6CCOCC6)c(F)c5)c4o3)cc2C)CC1` [Example 104, {4-[7-(3,5-Difluoro-4-morpholin-4-ylmethyl-phenyl)-benzooxazol-2-ylamino]-2-methyl-phenyl}-(4-ethyl-piperazin-1-yl)-methanone], 15 nM.
Regarding `Cc1cc(Nc2nc3cccc(-c4ccc(S(C)(=O)=O)cc4)c3o2)ccc1N1CCN(C(C)C)CC1` [Example 105, [4-(4-Isopropyl-piperazin-1-yl)-3-methyl-phenyl]-[7-(4-methanesulfonyl-phenyl)-benzooxazol-2-yl]-amine], the IC50 was 20 nM.
Consider `Cc1cc(-c2cccc3nc(Nc4ccc(N5CCN(C(C)C)CC5)c(C)c4)oc23)ccc1C(=O)N1CCOCC1` [Example 106, (4-{2-[4-(4-Isopropyl-piperazin-1-yl)-3-methyl-phenylamino]-benzooxazol-7-yl}-2-methyl-phenyl)-morpholin-4-yl-methanone], for which the IC50 turned out to be 6.15 nM.
Take `Cc1cc(Nc2nc3cccc(-c4cc(F)c(CN5CCS(=O)(=O)CC5)c(F)c4)c3o2)ccc1N1CCN(CCN(C)C)CC1` [Example 107, {4-[4-(2-Dimethylamino-ethyl)-piperazin-1-yl]-3-methyl-phenyl}-{7-[4-(1,1-dioxo-1lambda*6*-thiomorpholin-4-ylmethyl)-3,5-difluoro-phenyl]-benzooxazol-2-yl}-amine]: the IC50 came to 4.3 nM.
In the case of `COCCN1CCN(c2ccc(Nc3nc4cccc(-c5cc(F)c(CN6CCS(=O)(=O)CC6)c(F)c5)c4o3)cc2C)CC1` [Example 108, {7-[4-(1,1-Dioxo-1lambda*6*-thiomorpholin-4-ylmethyl)-3,5-difluoro-phenyl]-benzooxazol-2-yl}-{4-[4-(2-methoxy-ethyl)-piperazin-1-yl]-3-methyl-phenyl}-amine] it was 10.3 nM; in that of `CCN1CCN(c2ccc(Nc3nc4cccc(-c5cc(F)c(C(=O)N6CCOCC6)c(F)c5)c4o3)cc2C)CC1` [Example 109, (4-{2-[4-(4-Ethyl-piperazin-1-yl)-3-methyl-phenylamino]-benzooxazol-7-yl}-2,6-difluoro-phenyl)-morpholin-4-yl-methanone], 11 nM.

In general, IC50 refers to the concentration that inhibits the measured activity by half.

For the origin of these results see US8629168B2, “Benzoxazoles and oxazolopyridines being useful as janus kinases inhibitors” (priority 2006, dated 2014).
